From patent US7887850B2, “Method for reducing pathogens in the gastrointestinal tract of poultry and other food animals” (Ecolab Inc., priority 2004, dated 2011) come the findings set out here.

The subject of this data set is broilers.

Method: A total of 320 broilers (35 days of age) were randomly allocated to 64 pens (5 birds/pen). […] All solutions were prepared and replaced twice a day, and all birds were given free access to the solutions. Water intake, feed consumption, weight gain, and mortality was monitored during the seven day experimental period.

As for `O=C(O)CC(O)(CC(=O)O)C(=O)O` [citric acid], for the setting “broilers, drinking water, seven days, percent by weight”, the “levels that did not affect live performance” value is recorded as “up to 0.4%”. For the same compound, the “differences in mortality during the experiment” value (chicken (broilers), in vivo) is “No significant (P>0.05) differences”. Moreover, the “response of daily and 7-day water consumption to graded levels in the water” value (in vivo) is “Linear and quadratic responses”.
